The source of these data is PMC6102592, “Synthesis of New Benzothiazole Acylhydrazones as Anticancer Agents” (Molecules : A Journal of Synthetic Chemistry and Natural …, 2018).

Series [1] relates to A549 (Human lung adenocarcinoma epithelial cell line). Briefly: MTT cytotoxicity test, A549. In kind it is cell-based. The settings on record: Homo sapiens, A549, 24 h incubation. The protocol: (§1) MTT assay, depending on the capability of metabolically active cells that change the pale yellow MTT colour to a spectrophotometrically measured blue formazan salt, is one of the most favoured cytotoxicity tests. We assessed the antitumor potential of new benzothiazole-acylhydrazones on A549, C6, MCF-7, and HT-29 cell lines with various concentrations (1 mM, 0.316 mM, 0.1 mM, 0.0316 mM, 0.01 mM, 0.00316 mM, 0.001 mM, 0.000316 mM). In addition, the cytotoxic activities of compounds 4a–4j were evaluated against healthy NIH3T3 cells, owing to show the selectivity towards carcinogenic cells. The IC50 values of the compounds against cell lines are represented in Table 1.
(§2) Metabolic activity of viable cells was measured by MTT assay based on the reduction of 3-(4,5-dimethylthiazol-2-yl)-2,5-diphenyltetrazolium salt to a formazan product, which can be quantified spectrophotometrically to determine the percent of viable cells.
(§3) Anticancer activities of new benzothiazole acylhydrazones derivatives were evaluated against A549 C6, MCF-7 and HT-29 cell lines. The selectivity of their cytotoxic effects was evaluated on NIH/3T3 mouse embryonic fibroblast cells. NIH/3T3 cells were incubated in DMEM supplemented with fetal calf serum, penicillin (100 IU/mL), streptomycin ([…]) and 7.5% NaHCO3 at 37 °C in a humidified atmosphere of 95% air and 5% CO2. Carcinogenic cells were incubated in RPMI medium supplemented with fetal calf serum, penicillin (100 IU/mL), streptomycin ([…]) and 7.5% NaHCO3 at 37 °C in a humidified atmosphere of 95% air and 5% CO2. All cell lines were seeded at a density of 1 × 10^4 cells into the 96-well plates. After 24 h of incubating period, the culture mediums were removed and test compounds were added at concentrations of 0.000316–1 mM. After a 24 h incubation period, OD of samples were measured by a microplate reader (Biotek, Winooski, VT, USA) at 540 nm. Inhibition % at concentrations was determined using the formula below and IC50 values were calculated by nonlinear regression analysis using the SigmaPlot v.10 package program (Manufacturer, City, US State abbrev. if applicable, Country).
Background: Tetrazolium assays rely on reduction of a dye to a coloured formazan, in cell work by metabolically active cells.

The test system of series [2] is DNA synthesis of C6 cells. Briefly: DNA synthesis inhibition assay (BrdU cell proliferation). In kind it is cell-based, Rat. The conditions noted are these: C6, IC50/4 to 4 × IC50, 24 h. The method, then: This immunostaining assay is related to detecting the attendance of BrdU into nuclear DNA instead of thymidine during S-phase of the cell cycle using specific anti-BrdU antibodies. Thus, this study was performed to evaluate inhibitory effects of compounds 4d, 4e, and 4h on proliferation of C6 cell lines. […] Figure 2 represents the DNA synthesis inhibitory effect of compounds 4d, 4e, and 4h on C6 cells.
The BrdU cell proliferation method was performed to analyse the effects of compounds 4d, 4e and 4h on proliferation of C6 cells. C6 cells were seeded into the 96-well plates at a density of 1 × 10^4 cells. […] At the end of the incubation period, BrdU solution was added and cells were reincubated for 2 h at 37 °C. Anti-BrdU-POD ([…]) was added and the mixture was incubated for 90 min. Microplates were washed with PBS for three times. After adding substrate solution, the mixture was incubated for 15 min. OD of the wells were determined at 492 nm.

The test system of series [3] is C6 (Rat brain glioma cell line). Briefly: MTT cytotoxicity test, C6. In kind it is cell-based. The settings on record: Rattus norvegicus, Glioma cell, 24 h incubation. The method, then:
as §1, §2, §3

Series [4] deals with HT-29 (Human colorectal adenocarcinoma cell line). The series is described as follows: MTT cytotoxicity test, HT-29. The settings on record: Homo sapiens, HT-29, 24 h incubation. In kind it is cell-based. The protocol: as §1, §2, §3
Series [5] has as its system MCF-7 (Human breast adenocarcinoma cell line). The series is described as follows: MTT cytotoxicity test, MCF-7. In kind it is cell-based. The settings on record: Homo sapiens, MCF7, 24 h incubation. The protocol:
as §1, §2, §3

The test system of series [6] is NIH3T3 (Mouse embryo fibroblast cell line). The series is described as follows: MTT cytotoxicity test, healthy NIH3T3 cells. In kind it is cell-based. The settings on record: Mus musculus, NIH3T3; MTT, 24 h incubation, healthy cells. The protocol: as §1, §2, §3
Series [7] has as its system C6 cell line. Briefly: Flow cytometric analysis (Annexin V-FITC/PI). In kind it is cell-based, Rat. An excerpt: In the therapy of cancer, apoptosis, or programmed cell death, is one of the distinguished mechanisms of cytotoxic agents. It is an important approach to express the cell death pathway and most of the anticancer drugs induce apoptosis in tumor cells. Annexin V-FITC is a reagent that can detect and measure quantitate of apoptotic cells by flow cytometry. Staining cells with PI and Annexin V-FITC show the differences between live, apoptotic, dead, and late apoptotic or necrotic cells. Thus, this method provides evidence on the pathway of cell death.
Death pathway of the carcinogenic cell lines was detected by Annexin V-FITC Apoptosis Detection Kit (BD, Pharmingen, City, US State abbrev. if applicable, Country) as reported in the manufacturer’s instructions. […] After 24 h incubation period, cells were harvested by centrifugation at 1200 rpm for 5 min. at room temperature, rinsed with cold water twice and then suspended at 1 × 10^6 cells/mL concentration in Annexin V-FITC binding buffer. Propidium iodide ([…]) and annexin V-FITC ([…]) were added for staining the cells and the fluorescence measurements was performed using a flow cytometer. FCSExpress software (version, Manufacturer, City, US State abbrev. if applicable, Country) was used to display the percent of normal and apoptotic cells at different stages. […] The experiments were carried out in triplicate.

SMILES strings stand for the structures.

As usually defined, the IC50 is the concentration at which inhibition is half-maximal. `COc1ccc2sc(SCC(=O)NN=Cc3ccc(N4CCCC(C)C4)cc3)nc2c1` (stereo not shown) [Compound 4h, 2-((5-Methoxybenzo[d]thiazol-2-yl)thio)-N’-(4-(3-methylpiperidin-1-yl)benzylidene)acetohydrazide]: the IC50 in series [1] was greater than 1000 µM; in series [3] it was 30 µM; in series [4], greater than 1000 µM; in series [5], greater than 1000 µM; in series [6], 100 µM. Moreover, the “DNA synthesis inhibitory activity compared with cisplatin” value in series [2] was “could not display the same ability as compounds 4d and 4e to inhibit DNA synthesis”. For the same compound, the “Q1 percentage of necrotic cells” value is recorded as 5.4% in series [7] (C6, 2 × IC50 (0.06 mM), 24 h); 8.6% in series [7] (C6, IC50 (0.03 mM), 24 h); 10.8% in series [7] (C6, IC50/2 (0.015 mM), 24 h). The “Q2 percentage of late apoptotic cells” value in series [7] (C6, 2 × IC50 (0.06 mM), 24 h) was 10.5%; in series [7] (C6, IC50 (0.03 mM), 24 h), 7.4%; in series [7] (C6, IC50/2 (0.015 mM), 24 h), 4.9%. The “Q3 percentage of viable cells” value came out at 75.2% in series [7] (C6, 2 × IC50 (0.06 mM), 24 h) and 79.4% in series [7] (C6, IC50 (0.03 mM), 24 h). Moreover, the “Q4 percentage of early apoptotic cells” value in series [7] (C6, 2 × IC50 (0.06 mM), 24 h) was 8.9%; in series [7] (C6, IC50 (0.03 mM), 24 h), 4.6%; in series [7] (C6, IC50/2 (0.015 mM), 24 h) it was 0.3%. Further, the “percentages of apoptotic cells” value in series [7] (C6, at IC50 concentrations, 24 h (sum of Q2 and Q4)) is 12.0%. Besides, the viability at 15 µM in series [7] (Rattus norvegicus, C6, IC50/2 (0.015 mM), 24 h, read-out: Q3 percentage of viable cells) turned out to be 84.1%.
